What was measured:
B16.OVA melanoma = assay: Tumor experiment: in vitro activation of T cells; type: in vivo, C57BL/6 mice; conditions: L-arginine-treated OT-I T cells transferred into B16 OVA tumor bearing mice
Method: B16-OVA melanoma cells were cultured in RPMI 1640 plus 10% FCS, 1% penicillin/streptomycin and 2 mM glutamine. Before injection into mice, cells were trypsinized and washed twice in PBS. Then, 5×10^5 cells were subcutaneously injected in the dorsal region of Wt C57BL/6 mice. Ten days post injection, 5×10^6 OT-I cells, that have been activated in vitro as described above, were injected into the tail vein of tumor-bearing mice. The size of tumors was measured in a blinded fashion using calipers.

human naïve CD4+ T cells = assay: Cytokine analysis (IFN-gamma); type: cell-based
Method: 10^5 naïve T cells were stimulated with plate bound anti-CD3 (5 μg ml^−1) and anti-CD28 (1 μg ml^−1) in the presence of IL-12 (10 ng/ml, R&D Systems) to polarize cells towards a Th1 phenotype. After 48 h, cells were transferred into U-bottom plates and IL-2 (10 ng/ml, R&D Systems) was added. Three days later, supernatants were collected and interferon-γ was quantified using FlowCytomix assays (eBioscience). Samples were analyzed on a BD LSR Fortessa FACS instrument and quantification was performed with the FlowCytomix Pro 3.0 software. For re-stimulation, cells were cultured for 5 h in the presence of 0.2 μM phorbol 12-myristate 13-acetate (PMA) and 1 μg/ml ionomycin (both from Sigma).

natural killer cells = conditions: oral administration, healthy volunteers; cited from earlier work
OT-I T cells = assay: Adoptive T cell transfer and survival experiment; type: in vivo; conditions: activated 4 days in L-Arg medium, transfer into Cd3e−/− mice
Method: CD90.1^+ CD45.1/2^+ OT-I cells were activated with plate-bound antibodies to CD3 and CD28 in control medium. OT-I cells with a different congenic marker (CD90.1^+ CD45.1^+) were activated in L-arginine-supplemented medium. At day 4, equal cell numbers were injected into the tail vein of Cd3e^−/− host mice. To study the expansion of OT-I effector cells, host mice were sacrificed after 1, 3, 6, and 10 days post transfer and CD90.1^+ OT-I T cells from lymphoid organs (spleen and lymph nodes) were enriched with anti-CD90.1 micro beads (Miltenyi Biotec), stained and analysed by FACS. The following monoclonal antibodies were used α-CD8α (53-6.7), α-CD44 (1M7), α-CD62L (MEL-14), α-CD90.1 (OX-7), α-CD90.2 (30-H12), α-CD45.1 (A20), α-CD45.2 (104).

activated CD4+ T cells = assay: IL-2 withdrawal assay and assessment of cell viability, CD4+ T cells; type: cell-based, human
Method: (§1) Naïve CD4 T cells were activated with plate-bound CD3 and CD28 antibodies. 48 h after activation IL-2 was added to culture media (500 U ml^−1). After a further 3 days of culturing, cells were washed, counted and equal cell numbers were plated in medium devoid of IL-2. The withdrawal medium was no longer supplemented with e.g. L-arginine. Cell viability was assessed with annexin V.

mTOR = assay: Analysis of phosphorylation levels of 4E-BP and S6K1; type: cell-based, human; conditions: 3 mM L-arginine supplementation, 4 days activated
Method: Naïve CD4^+ T cells were activated with plate-bound antibodies to CD3 and CD28. Four days after activation, cells were lysed and analyzed by Western blot with the following antibodies obtained from Cell Signaling Technology. Phospho-p70 S6K(Thr389) #9205; p70 S6 Kinase #9202; Phospho-4E-BP1 (Thr37/46) #2855; 4E-BP1 #9644. Rapamycin (Sigma) was used at 100 nM.

human CD4+ T cell clones = assay: Survival experiment with CRISPR/Cas9 gene knockout T cell clones; type: cell-based
Method: as §1
Two to four short guide RNAs (sgRNAs) (Table 1) per gene were designed using the online tool provided by the Zhang laboratory (tools.genome-engineering.org). Oligonucleotide pairs with BsmBI-compatible overhangs were annealed and cloned into the lentiviral vector lentiCRISPR v2 (Addgene plasmid #52961) (Sanjana et al., 2014). […]
To screen for clones with disrupted target genes, individual clones were lysed with sample buffer containing 80 mM Tris pH 6.8, 10.5% glycerol, 2% SDS and 0.00004% Bromophenol blue. Lysate of 100,000 cells was separated by SDS-PAGE followed, blotted onto PVDF membranes and analyzed with antibodies to target proteins, Baz1B (Abeam, ab50850), PSIP1 (Bethyl, A300-848A), DDX17 (Abeam, ab180190), PTPN6 (Santa Cruz, sc-287) or TSN (Sigma, HPA059561). […] To screen for clones with disrupted B2M, single cell clones were stained with an antibody to MHC-1 (eBioscience, HLA-ABC-FITC) and analyzed by flow cytometry.

## N=C(N)NCCC[C@H](N)C(=O)O [L-arginine]
B16.OVA melanoma
  anti-tumor response: survival of mice: increased survival of mice
  anti-tumor response: tumor size: reduction of tumor size
Human naïve CD4+ T cells; L-arginine-supplemented medium, 10 ng/ml IL-12, supernatants after 5 days
  IFN-gamma secretion: much less
Human naïve CD4+ T cells; re-activation for 5 h with PMA/Ionomycin
  IFN-gamma secretion after re-activation: comparable amounts
Natural killer cells
  numbers and activity of natural killer cells: enhance the numbers and activity of natural killer cells
OT-I T cells
  survival capacity of OT-I T cells in vivo: higher survival capacity
Activated CD4+ T cells; L-Arg 3 mM added at indicated time points
  time of addition after T cell activation at which most effective on survival: ≤ 48 h
Activated CD4+ T cells; metabolites 3 mM, except for spermidine 0.1 mM, 5 days after IL-2 withdrawal
  survival of activated CD4+ T cells in the absence of exogenous cytokines: significantly increased
mTOR
  phosphorylation levels of two targets of mTOR (p70 S6K1 and 4E-BP): did not change
Human CD4+ T cell clones; knockout of BAZ1B, PSIP1 and TSN
  L-arginine's beneficial effect on T cell survival in BAZ1B, PSIP1 and TSN knockout clones: significantly reduced
Human CD4+ T cell clones; knockout of PTPN6 (Shp-1) or B2M
  effect of L-arginine on T cell survival in PTPN6 (Shp-1) or B2M knockout clones: did not alter
